This is an account of results in PMC9181887, “In Vitro Antithrombotic, Hematological Toxicity, and Inhibitor Studies of Protocatechuic, Isovanillic, and p-Hydroxybenzoic Acids from Maclura tricuspidata (Carr.) Bur” (Molecules, 2022).

For series [1], the system named is platelet aggregation/activation in whole blood. Nature of the series: PFA-100 platelet function assay, collagen/epinephrine cartridge. The class given is cell-based. Particulars: for Closure time: control 118.6 ± 2.1 s. Here is the method: The effects of the compounds on platelet aggregation/activation and adherence in whole blood under conditions of high shear stress flow were evaluated using a collagen/epinephrine cartridge (Dade Behring, Marburg, Germany) and platelet function analyzer (PFA-100), as previously described. Blood samples were drawn from healthy donors using 3.8% (w/v) sodium citrate. Aliquots of whole blood were treated with different concentrations of compounds and incubated for 5 min at room temperature. Blood samples were added to a collagen/epinephrine cartridge, and the time required for occlusion of the aperture was measured using the analyzer and reported as the closure time. Saline-treated blood was used as a control.

Series [2] relates to human plasma. Nature of the series: Coagulation assay, TT. It is filed as biochemical. To be noted: 50–100 μg. How it is done: (§1) A coagulation assay was performed to evaluate the prolongation potential of the compounds in blood coagulation by measuring APTT, PT, and TT, as previously described. After pretreatment of the compounds with human plasma for 10 min, APTT, PT, and TT were determined by a coagulometer (Thrombostat 1) manufactured by Behnk Elektronik, Germany.

The subject of series [3] is platelet aggregation. Set-up: method as in PMID 20824965, PMID 9869276. To be noted: ADP or collagen-induced platelet aggregation; cited from earlier work.
A further series relates to mouse blood clots. Nature of the series: In vitro antithrombotic activity assay using blood clot. Particulars: vs NC group treated with saline, p < 0.01, 1 h. Here is the method: To determine the in vitro antithrombotic activity, a blood clot assay was performed based on a previously described method. All experimental procedures were performed in accordance with the related ethical regulations of Gwangju University, and were approved by the Institutional Animal Care and Use Committee of Jeonnam Institute of Natural Resources Research, Jangheung, South Korea (2021-JINR2001). Fresh mouse blood clots (40 μg) treated with the compounds, 10–20 IU u-PA as PC 1–2, or saline as NC were incubated for 1 h. After incubation, blood clot degradation in each group was analyzed using absorbance values at a wavelength of 410 nm. The maximum absorbance wavelength was determined by measuring the absorption spectra in the wavelength range of 340–850 nm.

The subject of series [4] is platelet aggregation. Set-up: method as in PMID 20824965, PMID 9869276. To be noted: sodium arachidonate-induced platelet aggregation; cited from earlier work.
Series [5] relates to human plasma. Nature of the series: Coagulation assay, PT. The class given is biochemical. Particulars: 50–100 μg. How it is done:
as §1

A further series concerns diabetic rats. Set-up: method as in PMID 20824965, PMID 9869276. To be noted: cited from earlier work.
For another series, the system named is erythrocytes. Nature of the series: Hematological study, erythrocyte count by hemocytometer. Particulars: up to 200 μg/mL, 10 min, vs control. The class given is cell-based. Here is the method: Figure 1 Blood cytotoxic effect of PA (A), IVA (B), and 4-HA (C). Aliquots of washed platelets (10^3/mL), erythrocytes (10^6/mL), and leukocytes (10^3/mL) were treated with or without the compounds for 10 min and cell number was determined by hemocytometer counts. Each value is the mean ± SD of triplicate measurements. * p < 0.05 and ** p < 0.01, compared to each control groups. 10–500, 10–100 μg of each compound treated.
Total white blood cells (leukocytes) and red blood cells (erythrocytes) were counted using a hemocytometer, as previously described. Blood was diluted 1:200 with Hayem’s fluid and the cells were counted in a loaded hemocytometer chamber. To count the blood platelets, blood was diluted in a ratio of 1:20 with a diluting fluid, and four large (1 mm^2) corner squares of the hemocytometer were counted under a light microscope. Aliquots of leukocytes (0.1 mL; 10^3/mL), erythrocytes (0.1 mL; 10^6/mL), and platelets (0.1 mL; 10^3/mL) were treated with or without the compounds for 10 min.

Several values for one entry are separate records, joined by “and”; a condition that tells them apart may be missing. Identical values can stand only once. Like-named read-outs stand apart in the source and are kept apart here.

As a reminder, the IC50 is the point on the concentration scale where inhibition reaches its midpoint. Consider `O=C(O)c1ccc(O)cc1` [4-HA, 4-hydroxybenzoic acid], for which the Closure time was 121.2 ± 1.9 s in series [1] (10 μg); 127.7 ± 3.1 s in series [1] (20 μg); 134.6 s and 134.6 ± 4.5 s in series [1] (50 μg); 147.3 s and 147.3 ± 5.8 s in series [1] (100 μg). Besides, the “Closure time, fold of control” value in series [1] (50 μg) is 1.13 fold; in series [1] (100 μg) it was 1.24 fold. Besides, the “TT, fold of control” value with human plasma [2] is reported as 1.14–1.15 fold. Moreover, the “thrombin time (TT)” value with human plasma [2] (control 9.4 ± 0.2 s, p < 0.01) is 10.7 to 10.8 s. The IC50 in the series on platelet aggregation [3] is 1000 to 3400 µM; in the series on platelet aggregation [4] it was 300 µM. Moreover, the blood clot degradation result in the series on mouse blood clots is reported as “significantly degraded”. The “PT, fold of control” value with human plasma [5] is 1.25–1.26 fold. Also, the “prothrombin time (PT)” value in the series with human plasma [5] (control 20.8 ± 0.7 s, p < 0.05) was 25.9 to 26.2 s. Besides, the plasma glucose levels entry in the series with diabetic rats is recorded as “reducing plasma glucose levels in a dose-dependent manner”.
Take `COc1ccc(C(=O)O)cc1O` [IVA, isovanillic acid]: the Closure time in series [1] (10 μg) stood at 118.5 ± 1.8 s; in series [1] (20 μg) it was 119.7 ± 2.8 s; in series [1] (50 μg), 123.5 ± 2.2 s; in series [1] (100 μg) it was 129.4 ± 3.4 s. For the same compound, the “Closure time, fold of control” value in series [1] (100 μg) was 1.09 fold. Moreover, in the series on erythrocytes, the “effect on the number of erythrocytes” value is on record as “did not show any effect”. For the same compound, in the series on mouse blood clots, the blood clot degradation result is given as “significantly degraded”.
Consider `O=C(O)c1ccc(O)c(O)c1` [PA, protocatechuic acid], for which the Closure time was 119.9 ± 2.4 s in series [1] (10 μg), 122.1 ± 1.4 s in series [1] (20 μg), 126.3 ± 2.9 s in series [1] (50 μg) and 133.7 ± 5.2 s in series [1] (100 μg). Further, in series [1] (100 μg), the “Closure time, fold of control” value is 1.13 fold. Moreover, the “effect on the number of erythrocytes” value in the series with erythrocytes was “did not show any effect”. In addition, the blood clot degradation result in the series with mouse blood clots is “significantly degraded”.
